Like-named read-outs stand apart in the source and are kept apart here.

Assay [1] has as its target MAGL (Homo sapiens (Human), UniProt Q99685). In words: In vitro competitive activity-based protein profiling (gel-based, FP-Rh or HT-01 probe). It is filed as biochemical. The procedure: In Vitro Competitive Activity-Based Protein Profiling.
Proteomes (human prefrontal cortex or cell membrane fractions) (50 μL, 1.0 mg/mL total protein concentration) were preincubated with varying concentrations of inhibitors at 37° C. After 30 min, FP-Rh or HT-01 (1.0 μL, 50 μM in DMSO) was added and the mixture was incubated for another 30 min at room temperature. Reactions were quenched with SDS loading buffer (15 μL—4×) and run on SDS-PAGE.

In assay [2] the target is MAGL (Mus musculus (Mouse), UniProt O35678). In words: In vitro competitive activity-based protein profiling, mouse brain proteome. It counts as biochemical. Conditions: 1 uM; mouse.
Where [3] appears, read: human PC3, read-out: MAGL % Inhibition at 1 μM (human PC3).
Setting [4] is: human PFC (prefrontal cortex), read-out: MAGL % Inhibition at 1 μM (human PFC).
Setting [5] is: human PC3, read-out: MAGL Human PC3 (IC50).

Sequence of MAGL (Homo sapiens (Human), UniProt Q99685) (Q99685 whole entry): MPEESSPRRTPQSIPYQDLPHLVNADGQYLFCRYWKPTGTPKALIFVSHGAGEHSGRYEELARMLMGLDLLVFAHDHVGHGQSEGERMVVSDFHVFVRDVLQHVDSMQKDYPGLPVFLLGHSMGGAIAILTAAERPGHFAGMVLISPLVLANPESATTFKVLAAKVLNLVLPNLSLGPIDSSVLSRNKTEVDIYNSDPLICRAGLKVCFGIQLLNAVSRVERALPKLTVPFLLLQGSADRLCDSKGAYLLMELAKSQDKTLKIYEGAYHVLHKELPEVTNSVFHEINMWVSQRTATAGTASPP
Sequence of MAGL (Mus musculus (Mouse), UniProt O35678) (O35678 whole entry): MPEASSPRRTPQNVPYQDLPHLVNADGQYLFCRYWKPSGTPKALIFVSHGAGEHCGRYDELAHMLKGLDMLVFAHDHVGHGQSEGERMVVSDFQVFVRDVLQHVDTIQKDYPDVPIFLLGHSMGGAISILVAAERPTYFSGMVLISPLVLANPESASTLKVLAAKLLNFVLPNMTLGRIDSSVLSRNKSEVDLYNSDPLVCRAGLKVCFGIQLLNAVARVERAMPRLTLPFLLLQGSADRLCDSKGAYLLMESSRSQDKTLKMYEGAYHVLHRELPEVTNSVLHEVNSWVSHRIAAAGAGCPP

Regarding `O=C(OC(C(F)(F)F)C(F)(F)F)N1CCC2(CCCN2C(=O)c2cc3nccc(C(F)(F)F)n3n2)CC1` [Example 164, 1,1,1,3,3,3-Hexafluoropropan-2-yl 1-(7-(trifluoromethyl)pyrazolo[1,5-a]pyrimidine-2-carbonyl)-1,8-diazaspiro[4.5] decane-8-carboxylate], the inhibition at 1 µM at MAGL [1] (setting [3]), at MAGL [1] (setting [4]) and at MAGL [2] was above 75% in each case.
`O=C(OC(C(F)(F)F)C(F)(F)F)N1CCC2(CCCN2C(=O)c2cc3nccc(C4CC4)n3n2)CC1` [Example 165, 1,1,1,3,3,3-Hexafluoropropan-2-yl 1-(7-cyclopropylpyrazolo [1,5-a]pyrimidine-2-carbonyl)-1,8-diazaspiro[4.5] decane-8-carboxylate]: the inhibition at 1 µM on MAGL [1] (setting [3]), on MAGL [1] (setting [4]) and at MAGL [2] was above 75% each time.
Regarding `O=C(OC(C(F)(F)F)C(F)(F)F)N1CCC2(CCCN2C(=O)c2cc3nc(C(F)F)cc(C(F)F)n3n2)CC1` [Example 166, 1,1,1,3,3,3-Hexafluoropropan-2-yl 1-(5,7-bis(difluoromethyl)pyrazolo [1,5-a]pyrimidine-2-carbonyl)-1,8-diazaspiro [4.5]decane-8-carboxylate], the inhibition at 1 µM at MAGL [1] (setting [3]), at MAGL [1] (setting [4]) and on MAGL [2] was above 75% in each case.
Take `O=C(OC(C(F)(F)F)C(F)(F)F)N1CCC2(CCCN2C(=O)c2cc3nc(C4CC4)cc(C(F)F)n3n2)CC1` [Example 167, 1.1,1,3,3,3-Hexafluoropropan-2-yl 1-(5-cyclopropyl-7-(difluoromethyl)pyrazolo[1,5-a]pyrimidine-2-carbonyl)-1,8-diazaspiro[4.5] decane-8-carboxylate]: the inhibition at 1 µM at MAGL [1] (setting [3]), at MAGL [1] (setting [4]) and on MAGL [2] was above 75% each time.
`CN(C(=O)c1cnc2cccnn12)C1(C)CCN(C(=O)OC(C(F)(F)F)C(F)(F)F)CC1` [Example 168, 1,1,1,3,3,3-Hexafluoropropan-2-yl 4-methyl-4-(N-methylimidazo[1,2-b]pyridazine-3-carboxamido) piperidine-1-carboxylate]: the inhibition at 1 µM on MAGL [1] (setting [3]), on MAGL [1] (setting [4]) and at MAGL [2] was above 75% each time. For the same compound, on MAGL [1] (setting [5]), the half-maximal inhibitory concentration (IC50) was below 100 nM.
On to `Cc1nn2cccnc2c1C(=O)N1CCCC12CCN(C(=O)OC(C(F)(F)F)C(F)(F)F)CC2` [Example 171, 1,1,1,3,3,3-Hexafluoropropan-2-yl 1-(2-methylpyrazolo[1,5-a]pyrimidine-3-carbonyl)-1,8-diazaspiro[4.5] decane-8-carboxylate], for which the inhibition at 1 µM at MAGL [1] (setting [3]), at MAGL [1] (setting [4]) and at MAGL [2] was above 75% each time. In addition, the IC50 at MAGL [1] (setting [5]) was below 100 nM.
Turning to `Cc1cc(C)n2nc(C)c(C(=O)N3CCCC34CCN(C(=O)OC(C(F)(F)F)C(F)(F)F)CC4)c2n1` [Example 172, 1,1,1,3,3,3-Hexafluoropropan-2-yl 1-(2,5,7-trimethylpyrazolo [1,5-a]pyrimidine-3-carbonyl)-1,8-diazaspiro[4.5] decane-8-carboxylate], the inhibition at 1 µM on MAGL [1] (setting [3]), at MAGL [1] (setting [4]) and at MAGL [2] was above 75% throughout. For the same compound, at MAGL [1] (setting [5]), the IC50 was below 100 nM.
For the compound `O=C(O)Cn1cc(Cl)c(C(=O)N2CCCC23CCN(C(=O)OC(C(F)(F)F)C(F)(F)F)CC3)n1` [Example 173, 2-(4-Chloro-3-(8-(((1,1,1,3,3,3-hexafluoropropan-2-yl)oxy)carbonyl)-1,8-diazaspiro[4.5]decane-1-carbonyl)-1H-pyrazol-1-yl)acetic acid], the inhibition at 1 µM is above 75% at MAGL [1] (setting [4]) and below 25% at MAGL [2].
As to `Cn1cc(CN2CCCC23CCN(C(=O)OC(C(F)(F)F)C(F)(F)F)CC3)cn1` [Example 175, 1,1,1,3,3,3-Hexafluoropropan-2-yl 1-((1-methyl-1H-pyrazol-4-yl)methyl)-1,8-diazaspiro[4.5] decane-8-carboxylate], the results for the inhibition at 1 µM at MAGL [1] (setting [3]), on MAGL [1] (setting [4]) and on MAGL [2] were above 75%, above 75% and 25 to 75%, respectively.
Turning to `CN(C(=O)C1(c2ncccn2)CC1)C1(C)CCN(C(=O)OC(C(F)(F)F)C(F)(F)F)CC1` [Example 177, 1,1,1,3,3,3-Hexafluoropropan-2-yl 4-methyl-4-(N-methyl-1-(pyrimidin-2-yl)cyclopropane-1-carboxamido) piperidine-1-carboxylate], the inhibition at 1 µM at MAGL [1] (setting [3]), at MAGL [1] (setting [4]) and on MAGL [2] was above 75% in each case.
Take `CCN(C(=O)c1cn2c(n1)CN(C1CC1)CC2)C1(C)CCN(C(=O)OC(C(F)(F)F)C(F)(F)F)CC1` [Example 178, 1,1,1,3,3,3-Hexafluoropropan-2-yl 4-(7-cyclopropyl-N-ethyl-5,6,7,8-tetrahydroimidazo [1,2-a]pyrazine-2-carboxamido)-4-methylpiperidine-1-carboxylate]: the inhibition at 1 µM on MAGL [1] (setting [3]), at MAGL [1] (setting [4]) and on MAGL [2] was above 75% in each case.
For `CC1(NC(=O)c2cn3c(n2)CN(C(=O)C2(F)CC2)CC3)CCN(C(=O)OC(C(F)(F)F)C(F)(F)F)CC1` [Example 192, 1,1,1,3,3,3-Hexafluoropropan-2-yl 4-(7-(1-fluorocyclopropane-1-carbonyl)-5,6,7,8-tetrahydroimidazo[1,2-a]pyrazine-2-carboxamido)-4-methylpiperidine-1-carboxylate], the inhibition at 1 µM on MAGL [1] (setting [3]) and on MAGL [2] was above 75% in each case. Moreover, on MAGL [1] (setting [5]), the IC50 is below 100 nM.
Take `CCC(C)(C)C(=O)N1CCn2cc(C(=O)NC3(C)CCN(C(=O)OC(C(F)(F)F)C(F)(F)F)CC3)nc2C1` [Example 193, 1,1,1,3,3,3-Hexafluoropropan-2-yl 4-(7-(2,2-dimethylbutanoyl)-5,6,7,8-tetrahydroimidazo[1,2-a]pyrazine-2-carboxamido)-4-methylpiperidine-1-carboxylate]: the inhibition at 1 µM on MAGL [1] (setting [3]) and on MAGL [2] was above 75% throughout. In addition, the IC50 on MAGL [1] (setting [5]) was below 100 nM.
Consider `O=C(OC(C(F)(F)F)C(F)(F)F)N1CCC2(CCCN2C(=O)Cc2ncccn2)CC1` [Example 195, 1,1,1,3,3,3-Hexafluoropropan-2-yl 1-(2-(pyrimidin-2-yl)acetyl)-1,8-diazaspiro[4.5] decane-8-carboxylate], for which the values for the inhibition at 1 µM at MAGL [1] (setting [3]), at MAGL [1] (setting [4]) and on MAGL [2] were above 75%, above 75% and below 25%, respectively.
As for `O=C(OC(C(F)(F)F)C(F)(F)F)N1CCC2(CCCN2C(=O)C(F)(F)c2ncc(F)cn2)CC1` [Example 196, 1,1,1,3,3,3-Hexafluoropropan-2-yl 1-(2,2-difluoro-2-(5-fluoropyrimidin-2-yl)acetyl)-1,8-diazaspiro [4.5]decane-8-carboxylate], the inhibition at 1 µM at MAGL [1] (setting [3]), on MAGL [1] (setting [4]) and on MAGL [2] was above 75% in each case.
Consider `CN(C(=O)C(F)(F)c1cnccn1)C1(C)CCN(C(=O)OC(C(F)(F)F)C(F)(F)F)CC1` [Example 198, 1,1,1,3,3,3-Hexafluoropropan-2-yl 4-(2,2-difluoro-N-methyl-2-(pyrazin-2-yl)acetamido)-4-methylpiperidine-1-carboxylate], for which the inhibition at 1 µM at MAGL [1] (setting [3]), on MAGL [1] (setting [4]) and at MAGL [2] was above 75% each time.
Take `COc1cnc(C(F)(F)C(=O)N(C)C2(C)CCN(C(=O)OC(C(F)(F)F)C(F)(F)F)CC2)cn1` [Example 199, 1,1,1,3,3,3-Hexafluoropropan-2-yl 4-(2,2-difluoro-2-(5-methoxypyrazin-2-yl)-N-methylacetamido)-4-methylpiperidine-1-carboxylate]: the inhibition at 1 µM at MAGL [1] (setting [3]), on MAGL [1] (setting [4]) and on MAGL [2] was above 75% throughout. Further, the IC50 on MAGL [1] (human PFC (prefrontal cortex), read-out: MAGL Human PFC (IC50)) was below 100 nM.
As to `O=C(OC(C(F)(F)F)C(F)(F)F)N1CCC2(CCCN2C(=O)C2(c3ccnc(C4CC4)n3)CC2)CC1` [Example 201, 1,1,1,3,3,3-Hexafluoropropan-2-yl 1-(1-(2-cyclopropylpyrimidin-4-yl)cyclopropane-1-carbonyl)-1,8-diazaspiro [4.5]decane-8-carboxylate], the inhibition at 1 µM on MAGL [1] (setting [3]), at MAGL [1] (setting [4]) and at MAGL [2] was above 75% in each case. On MAGL [1] (setting [5]), the IC50 is below 100 nM.
For `O=C(OC(C(F)(F)F)C(F)(F)F)N1CCC2(CCCN2C(=O)C2(c3nccc(C(F)(F)F)n3)CC2)CC1` [Example 202, 1,1,1,3,3,3-Hexafluoropropan-2-yl 1-(1-(4-(trifluoromethyl)pyrimidin-2-yl)cyclopropane-1-carbonyl)-1,8-diazaspiro [4.5]decane-8-carboxylate], the inhibition at 1 µM at MAGL [1] (setting [3]), at MAGL [1] (setting [4]) and on MAGL [2] was above 75% each time. Besides, on MAGL [1] (setting [5]), the half-maximal inhibitory concentration (IC50) is below 100 nM.
As for `COc1ccnc(C2(C(=O)N3CCCC34CCN(C(=O)OC(C(F)(F)F)C(F)(F)F)CC4)CC2)n1` [Example 203, 1,1,1,3,3,3-Hexafluoropropan-2-yl 1-(1-(4-methoxypyrimidin-2-yl)cyclopropane-1-carbonyl)-1,8-diazaspiro [4.5]decane-8-carboxylate], the inhibition at 1 µM at MAGL [1] (setting [3]), at MAGL [1] (setting [4]) and at MAGL [2] was above 75% each time. Further, at MAGL [1] (setting [5]), the IC50 was below 100 nM.

In general, inhibition refers to the relative decrease from the control value, in per cent. A word on the IC50: it is the concentration that inhibits the measured activity by half.
